# Several values for one entry are separate records, joined by “and”; a condition that tells them apart may be missing. Equal values may be shown once.
# Tested on: PANC-1 complex spheroid growth, percent test/control
# Assay: Anticancer human tumor PANC-1 cell line growth inhibition [Asc];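 also: spheroids exposed to agents for 7 days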;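 as to viability, T/C: percent viability relative to DMSO vehicle wells taken as 100%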
# Conditions: for viability, T/C: stronger effect = lower value
# Description: Multicellular complex tumor spheroid response to apoptosis pathway targeting inhibitors Alrizomadlin, Pelcitoclax, and Dasminapant in combination with a variety of drugs and investigational agents in selected tumor cell lines
# The MDM2 inhibitor alrizomadlin, the Bcl-2/Bcl-xL inhibitor pelcitoclax, and the IAPs inhibitor dasminapant were evaluated both individually and in combination with standard of care and investigational anticancer small molecules within a complex spheroid model of solid tumors. . Complex spheroids include a stromal component modeled by human endothelial cells (HUVEC) and fibroblasts modeled by human mesenchymal stem cells (MSCs). The concentration ranges selected for each drug and investigational agent were based upon clinically achievable concentrations if the clinical Cmax of the agent was known.
# Compounds. The drugs and investigational agents: alrizomadlin (APG-115; NSC831270), pelcitoclax (APG-1252; NSC835773), dasminapant (APG-1387;NSC834197), TAK-243 (NSC785004), copanlisib (NSC809693), olaparib (NSC753686), talazoparib (NSC767125), cobimetinib (NSC 768068), eltanexor (KPT-8602, NSC 794443), abemaciclib (NSC 768073), sotorasib (NSC818433), adagrasib (NSC 831453), MRTX-1133 (NSC 836407), Iadademestat (ORY1001, NSC 806812), and RMC-4630 (NSC839698), were obtained from the NCI Developmental Therapeutics Program Chemical Repository. The FDA-approved anticancer drug set is available from the Developmental Therapeutics Program at https://dtp.cancer.gov/organization/dscb/obtaining/available plates.htm. […] The stock solutions were prepared in dimethyl sulfoxide (DMSO, Sigma-Aldrich, St. Louis, MO, cat. D2650) at 800-fold the tested concentration and stored at -70 degrees C prior to their use. All drugs and investigational agents were tested over a range starting from a high concentration at or near the clinical Cmax and decreasing in half-log increments. If the clinical Cmax for an agent had not been determined, the highest concentration tested was 10 microM.
# The patient-derived cancer (PDC) cell lines include five colon adenocarcinomas: 186277-243-T-J2-PDC, 616215-338-R-J1-PDC, 439559-082-T-J2-PDC, 463943-066-T-J2-PDC, and 519858-162-T-J1-PDC; three pancreatic carcinomas: 323965-272-R-J2-PDC, 521955-158-R6-J3-PDC, and 521955-158-R2-J5-PDC; two uterine sarcomas: 327498-152-R-J2-PDC and 993429-296-R-J1-PDC; two rhabdomyosarcomas: 755483-174-R-J1-PDC and 772245-204-R-J1-PDC; two soft tissue sarcomas: 126254-015-R-J1-PDC and 494315-158-R-J1-PDC; two malignant fibrous histiocytomas: 317291-083-R-J1-PDC and 596521-263-R-J1-PDC; two breast carcinomas: 171881-019-R-J1-PDC and 885512-296-R-J2-PDC; and one ovarian carcinoma: 6556581-035-R-J-PDC were obtained from the NCI PDMR, (https://pdmr.cancer.gov). The established cell lines HSSY-2 synovial sarcoma (RRID:CVCL 8719), SYO-1 synovial sarcoma (RRID:CVCL_7146), MPNST malignant peripheral neural sheath tumor were obtained from the Sloan Kettering Institute. The following established cell lines were purchased from the American Type Culture Collection (ATCC, Manassas, VA), Sor the received from the NCI repository:, PANC-1 pancreatic carcinoma (CRL-1469, RRID:CVCL_0480), OVCAR-5 ovarian carcinoma (RRID:CVCL_1628), OVCAR-8 ovarian carcinoma (RRID:CVCL_1629), , MCF-7 breast carcinoma (CRL-12584, RRID:CVCL_0031), MDA-MB-231 breast carcinoma (CRL-12532, RRID:CVCL_0062), NCI-H1876 small cell lung carcinoma (CRL-5902, RRID:CVCL_1503), NCI-H510A small cell lung carcinoma (HTB-184, RRID:CVCL_1565), NCI-H1417 (CRL-5869, RRID:CVCL_1469), and NCI-H196 small cell lung carcinoma (CRL-5823, RRID:CVCL_1509). Dr. Peter Houghton (Greehey Children's Cancer Research Institute, University of Texas Health Science Center, San Antonio, TX) provided Rh-18 rhabdomyosarcoma (RRID:CVCL_1659). Pooled donor human umbilical vein endothelial cells (HUVEC, Lonza, cat. CC-2519) and human mesenchymal stem cells (hMSC, Lonza, cat. PT-2501) were purchased from Lonza (Walkersville, MD).
# Cell Culture. […]
# [1] = compound alone, run of 11/07/2022
SMILES,"viability, T/C (compound 0.0316 µM)","viability, T/C (compound 0.1 µM)","viability, T/C (compound 0.316 µM)","viability, T/C (compound 1 µM)","viability, T/C (compound 3.16 µM)",IC50 (curve of compound),"viability, T/C (compound 0.00316 µM)","viability, T/C (compound 0.01 µM)",further results
C#Cc1c(F)ccc2cc(O)cc(-c3ncc4c(N5CC6CCC(C5)N6)nc(OCC56CCCN5CC(F)C6)nc4c3F)c12 (configuration not stated),105% and 87.8% and 92.5%,80% and 75.7% and 88.9%,93.9% and 85.8% and 83.5%,79.9% and 80.1% and 84%,86.8% and 83.7% and 86.3%,> 10000 nM,–,–,"viability, T/C (compound 10 µM): 85.4% and 84.5% and 92.1%"
C=C(F)C(=O)N1CCN(c2nc(OCC3CCCN3C)nc3c2CCN(c2cccc4cccc(Cl)c24)C3)CC1CC#N (configuration not stated),108% and 97% and 96.2%,105% and 86% and 95%,94.3% and 104% and 98%,101% and 96.9% and 96.6%,97.6% and 102% and 90.8%,7100 nM and 7400 nM and 6980 nM,–,–,"viability, T/C (compound 10 µM): 29.9% and 33.2% and 31.5%"
C=CC(=O)N1CCN(c2nc(=O)n(-c3c(C)ccnc3C(C)C)c3nc(-c4c(O)cccc4F)c(F)cc23)C(C)C1 (configuration not stated),105% and 97.2% and 101%,96% and 89.2% and 90%,104% and 106% and 98%,101% and 89.2% and 96.2%,85.8% and 99.7% and 91.8%,> 10000 nM,–,–,"viability, T/C (compound 10 µM): 93.4% and 87.1% and 88%"
CCN1C(C(=O)NC23CCC(C(=O)O)(CC2)CC3)C(c2cccc(Cl)c2F)C2(C(=O)Nc3cc(Cl)ccc32)C12CCCCC2 (configuration not stated),–,–,–,–,–,> 3000 nM,–,–,"viability, T/C (compound 0.00949 µM): 103% [middle of 9 runs]; viability, T/C (compound 0.03 µM): 102% [middle of 9 runs]; viability, T/C (compound 0.0949 µM): 103% [middle of 9 runs]; viability, T/C (compound 0.3 µM): 100% [middle of 9 runs]; viability, T/C (compound 0.949 µM): 103% [middle of 9 runs]; viability, T/C (compound 3 µM): 112% [middle of 9 runs]; IC50 [1]: > 3000 nM"
CCN1CCN(Cc2ccc(Nc3ncc(F)c(-c4cc(F)c5nc(C)n(C(C)C)c5c4)n3)nc2)CC1,111% (2×) and 121%,114% and 116% and 118%,122% and 124% and 128%,135% and 128% and 142%,–,> 1000 nM,98.9% and 103% and 108%,107% and 98.8% and 97.8%,–
CNC(C)C(=O)NC1CN(S(=O)(=O)c2cccc(S(=O)(=O)N3CCC4CCC(C(=O)NC(c5ccccc5)c5ccccc5)N4C(=O)C(NC(=O)C(C)NC)C3)c2)CCC2CCC(C(=O)NC(c3ccccc3)c3ccccc3)N2C1=O (configuration not stated),98.1% [middle of 9 runs],96.1% [middle of 9 runs],93.5% [middle of 9 runs],89.2% [middle of 9 runs],–,> 1000 nM,107% [middle of 9 runs],102% [middle of 9 runs],"IC50 (compound alone, run of 11/15/2022): > 1000 nM"
COc1c(OCCCN2CCOCC2)ccc2c3n(c(=NC(=O)c4cnc(N)nc4)nc12)CCN3,92% and 108% and 94.5%,78.6% and 67.6% and 82.1%,52.2% and 63.2% and 49.7%,39.4% and 36.3% and 28.6%,–,511 nM and 302 nM and 385 nM,101% and 93.1% and 100%,89.9% and 93.9% and 92.4%,–
Cc1c(S(C)(=O)=O)c(-c2cc(F)cc(N3CCN(c4ccc(NS(=O)(=O)c5ccc(NC(CCN6CCC(C(=O)OCCCP(=O)(O)O)CC6)CSc6ccccc6)c(S(=O)(=O)C(F)(F)F)c5)cc4)CC3)c2)c(-c2ccc(Cl)cc2)n1C(C)C (configuration not stated),106% [middle of 7 runs],108% [middle of 7 runs],–,–,109% [middle of 7 runs],–,–,–,IC50 [1]: > 10000 nM
Cc1nc(N2CCC3(CC2)COC(C)C3N)c(CO)nc1Sc1ccnc(N)c1Cl (configuration not stated),–,–,–,–,–,> 3000 nM,–,–,"viability, T/C (compound 0.00949 µM): 101% and 93.1% and 109%; viability, T/C (compound 0.03 µM): 83.2% and 88.3% and 85.1%; viability, T/C (compound 0.0949 µM): 102% and 90.2% and 91%; viability, T/C (compound 0.3 µM): 82.2% and 84.3% and 94.8%; viability, T/C (compound 0.949 µM): 91.4% and 83.7% and 86.9%; viability, T/C (compound 3 µM): 87.5% and 86% and 99.3%"
Cn1ncnc1[C@H]1c2n[nH]c(=O)c3cc(F)cc(c23)N[C@@H]1c1ccc(F)cc1,109% and 105% and 108%,109% and 105% and 115%,–,–,–,> 100 nM,99.2% and 110% and 107%,98.5% and 105% and 109%,"viability, T/C (compound 0.000316 µM): 97.2% and 109% and 94.1%; viability, T/C (compound 0.001 µM): 104% and 101% and 106%"
NC(=O)C(=Cn1cnc(-c2cc(C(F)(F)F)cc(C(F)(F)F)c2)n1)c1cncnc1,–,–,–,–,–,> 300 nM,–,–,"viability, T/C (compound 0.000949 µM): 99.7% and 95.2% and 104%; viability, T/C (compound 0.003 µM): 88.1% and 92.4% and 96.4%; viability, T/C (compound 0.00949 µM): 92% and 89% and 111%; viability, T/C (compound 0.03 µM): 89.8% and 103% and 102%; viability, T/C (compound 0.0949 µM): 113% and 114% and 130%; viability, T/C (compound 0.3 µM): 92.5% and 100% and 118%"
NC1CCC(NC2CC2c2ccccc2)CC1 (configuration not stated),93.5% and 101% and 93.9%,107% and 91.3% and 97.6%,–,–,–,> 100 nM,100% and 110% and 93.7%,98.2% and 85.6% and 90.5%,"viability, T/C (compound 0.000316 µM): 98.4% and 88.6% and 107%; viability, T/C (compound 0.001 µM): 100% and 93.4% and 91.5%"
O=C(c1cc(Cc2n[nH]c(=O)c3ccccc23)ccc1F)N1CCN(C(=O)C2CC2)CC1,93.1% and 94.8% and 102%,92.7% and 90.1% and 94.9%,99.7% and 109% and 102%,101% and 112% and 116%,113% and 107% and 103%,> 10000 nM,–,–,"viability, T/C (compound 10 µM): 101% and 95.9% and 103%"
O=C(c1ccc(F)c(F)c1Nc1ccc(I)cc1F)N1CC(O)([C@@H]2CCCCN2)C1,87.9% and 89.5% and 101%,85.8% and 91.7% and 97.6%,87.8% and 89.1% and 96.5%,92.6% and 92.3% and 102%,–,> 1000 nM,94.2% and 92.8% and 95.9%,90.2% and 82.4% and 91.8%,–

# Reference: PubChem BioAssay AID1963435 (Molecular Pharmacology Branch, DTP, NCI, 2024)
